{"source": "patent US20250228841A1", "about": "“COMPOSITIONS AFFECTING PIGMENT PRODUCTION AND METHODS FOR TREATMENT OF BACTERIAL DISEASES” (Aptorum Therapeutics Limited, priority 2024, published 2025)", "key": {"[1]": {"assay": "Solubility in solutions simulating gastric juice and intestinal fluid", "type": "physicochemical", "text": "The following table (Table 4) illustrates the solubility of two different compounds, NP16-XL-016 (hereinafter as “IM032”) and NP16-XL-061 (hereinafter as “IM032-C1”), in two solutions with different pH values simulating the pH of gastric juice and human intestinal fluid using HCl and phosphate buffer respectively."}, "[2]": {"test_system": "S. aureus COL", "assay": "Hydrogen peroxide susceptibility assay", "type": "cell-based, Staphylococcus aureus", "settings": "S. aureus COL grown with NP16 (40 μM); 440 mM H2O2, 1 hr", "description": "(§1) S. aureus was grown in BHI with or without NP16 (40 μM). After 2 days, bacteria were washed twice in PBS, diluted to a concentration of 1×10^7 CFUs per 100 μl reaction mixture in a 96-well plate. Hydrogen peroxide (H2O2) in PBS was added to a 440 mM final concentration, and the plate was incubated for 1 hr at 37° C. with shaking. The reaction was stopped by the addition of 1,000 U/ml of exogenous catalase (Sigma-Aldrich, St. Louis, MO), and bacterial viability was assessed by plating dilutions on BHI agar plates."}, "[3]": {"test_system": "MDCK cells", "assay": "Cytotoxic activity on MDCK cells", "type": "cell-based"}, "[4]": {"test_system": "S. aureus COL", "assay": "Murine intraperitoneal infection model, liver and spleen CFU", "type": "in vivo, Staphylococcus aureus", "settings": "BALB/c mice, i.p. S. aureus COL; 0.35 mg twice per day (days -1, 0, 1 and 2); 72 hours; P<0.01", "description": "(§2) For other S. aureus sub-type, eight-to ten-week-old female BALB/c mice were injected intraperitoneally (i.p) with 4×10^8 CFUs of early stationary phase S. aureus COL. After 3 d, animals were euthanized, the liver and spleen were isolated, homogenized in PBS, and plated on to obtain viable counts. For the treatment study, mice were randomized into two groups at the start of the experiment and administered, i.p., either 0.35 mg of NP16 or PBS with 5% Tween-80 as a control, twice per day, starting on d-1 to d 2 (a total of eight doses for each). Intraperitoneal challenge with 4×10^8 CFUs of early stationary phases S. aureus COL was performed on d 0. The mice were sacrificed on d 3 for enumeration of bacterial CFUs in liver and spleen homogenates."}, "[5]": {"test_system": "clinical isolate S. aureus strain AE052", "assay": "Murine intraperitoneal infection model, kidney CFU", "type": "in vivo, Staphylococcus aureus", "description": "as §2\nFor the clinical isolate S. aureus strain AE052, all operations were similar to those used for the COL strain, except 10^8 CFUs of early stationary phase bacteria were used in the infection model, and kidneys were collected for monitoring bacterial loads. Statistics were performed using the Student's t-test (GraphPad Prism)."}, "[6]": {"test_system": "non-pigmented strain RN6390", "assay": "Hydrogen peroxide susceptibility assay, non-pigmented strain", "type": "cell-based, Staphylococcus aureus", "description": "as §1"}, "[7]": {"test_system": "S. aureus COL", "assay": "Bactericidal activity of human polymorphonuclear leukocytes (neutrophil killing)", "type": "cell-based, Staphylococcus aureus", "settings": "NP16-treated S. aureus COL", "description": "The killing of S. aureus by human polymorphonuclear leukocytes (PMNs) was determined as previously described, with some modifications. Briefly, PMNs (10^6) were mixed with ˜10^7 opsonized S. aureus bacteria MOI=10 in 24-well tissue culture plates. After centrifuged at 380 g for 8 min, plates were incubated at 37° C. for up to 1.5 h. PMNs were lysed with saponin (20 min on ice) and plated on BHIA plates. The percent survival was calculated by normalized with time zero. Statistics were performed with the Student's t-test (GraphPad Prism)."}, "[8]": {"test_system": "methicillin-resistant S. aureus (MRSA)", "assay": "Mouse MRSA skin infection model, wound closure", "type": "in vivo, Staphylococcus aureus", "text": "Visual wound healing/closure in different treatment groups of mice can be observed in FIG. 11B."}, "[9]": {"test_system": "MRSA USA 300 ATCC BAA-1717", "assay": "Mouse (LD0-20) bacteremia model, bacterial counts in organs", "type": "in vivo, Staphylococcus aureus", "settings": "BALB/c mice, IV MRSA USA 300 ATCC BAA-1717; IM032 0.3-30 mg/kg PO BID 7 days; Day 7", "description": "A bacterial strain, USA 300 MRSA BAA-1717, was used to infect BALB/c (female). Test animals were intravenously (IV) inoculated with MRSA ATCC BAA-1717 at a target density of 1×10^6 CFU/mouse. Test substance, IM032 at 0, 0.3, 1, 3, 10, and 30 mg/kg, was administered orally (PO) twice daily (BID) for a total of 7 dosing days.\nThe reference agents, vancomycin at 3 mg/kg was administered IV once (QD) at 1 h after infection for 7 consecutive days.\nWith reference to FIG. 9, the animals were IV inoculated with MRSA USA 300 ATCC BAA-1717 at 1.02×10^6 CFU/mouse. IM032 at 0.3, 1, 3, 10, and 30 mg/kg were orally (PO) administrated twice daily (BID) at 1 and 7 h after the infection on Day 1, and then twice daily at 6-hour intervals in the next 6 days for a total of 7 days of dosing. Vancomycin, at 3 mg/kg, was administered intravenously (IV) at 1 h after the infection on Day 1 and then once a day in the next 6 days for a total of 7 days of dosing. All the test animals in the IM032 treatment, reference vancomycin and the vehicle control groups were sacrificed at 168 hours (Day 7) after the infection. […] Statistical significance compared to the respective vehicle control was determined by unpaired student t-tests. […]\nWith reference to FIG. 10, bacterial density in lung and liver were determined. […] Statistical significance compared to the respective vehicle control was determined by unpaired student t-tests. […]"}, "[10]": {"test_system": "10 different Staphylococcus aureus (S. aureus) strains", "assay": "Inhibition of staphyloxanthin production by IM032 in different S. aureus strains (overall)", "type": "cell-based", "settings": "any concentration of IM032 (up to 4,000 nM)", "description": "Compound IM032 was evaluated for its in vitro efficacy to inhibit staphyloxanthin production in 10 different Staphylococcus aureus (S. aureus) strains, SH1000, HG003, ATCC29213, ATCC700698, COL, JE2, LAC, USA300-3, Newman and ST239III.\nThe test item was dissolved at 44.9 mg/mL in DMSO at 37° C., aliquoted into several tubes, and stored at −20° C. until use. On the day of testing, a stock solution was serially diluted to testing concentrations with DMSO. All solutions were vortexed and mixed with a pipette to achieve homogeneity immediately before dilution. A correction factor for purity was not applied to the test item preparations.\nEach test item solution (6 μL) was combined with 0.6 mL of S. aureus culture in brain heart infusion broth (CFU per well=1×10^7). 12-wells repeats were performed for each concentration in 96-well 2-mL plates. The plates were then incubated in a shaker at 37° C., 250 rpm for 24 hours. […] After centrifugation, 100 μL of supernatant was transferred to a 96-well cell culture plate and OD450 was measured. The relative pigment production at each tested concentration was calculated as follows: […]\nThe IC50 for each test was determined based on the calculated inhibition ratio from above with Prism 6.0 by employing a non-linear regression (four parameters) fitting method with assigned bottom and top at 0.05 and 0.95 respectively. […]"}}, "data": [{"compound": "O=C(/C=C/c1ccccc1Cl)Nc1ccc(S(=O)(=O)N2CCCCC2)cc1", "note": "[IM032-Cl, 3-(6-chlorophenyl)-N-[4-(1-piperidine-1-sulfonyl)phenyl] acrylamide]", "values": [{"measurement": "Solubility in pH 2 (0.1N HCl + 0.1% Tween 80) - simulating human stomach", "setting": "[1]; pH 2", "value": "<LOQ"}]}, {"compound": "O=C(/C=C/c1ccccc1)Nc1ccc(S(=O)(=O)N2CCCC2)cc1", "note": "[NP16, 3-phenyl-N-[4-(1-pyrrolidinyl-sulfonyl)phenyl]acrylamide]", "values": [{"measurement": "susceptibility to killing by hydrogen peroxide", "setting": "[2]", "value": "increased susceptibility"}, {"measurement": "effect on the growth of MDCK cells (cytotoxic activity)", "setting": "[3]", "value": "no effect"}, {"measurement": "bacterial counts in the livers and spleens versus control group", "setting": "[4]", "value": "significantly lower"}, {"measurement": "mice with kidney bacterial counts below the detection threshold", "setting": "[5]; AE052 infection, n=10, control group 2 of 10", "value": "6 of 10"}, {"measurement": "bacterial counts in the kidneys versus control group", "setting": "[5]; mice infected with AE052, 0.35 mg twice per day, P<0.001", "value": "significantly lower"}, {"measurement": "susceptibility to hydrogen peroxide killing irrespective of treatment", "setting": "[6]", "value": "similar"}, {"measurement": "susceptibility to killing by neutrophils", "setting": "[7]", "value": "increased susceptibility"}]}, {"compound": "O=C(/C=C/c1ccccc1Br)Nc1ccc(S(=O)(=O)N2CCCCC2)cc1", "note": "[NP16-XL-016, 3-(6-bromophenyl)-N-[4-(1-piperidine-1-sulfonyl)phenyl] acrylamide]", "values": [{"measurement": "solubility in two biorelevant media relative to IM032-C1", "setting": "[1]; pH 2 and pH 7.4, fold higher than IM032-C1", "value": "> 20", "unit": "×"}, {"measurement": "wound healing compared with 2% Mupirocin and Linezolid", "setting": "[8]; oral 30 mg/kg twice a day", "value": "statistically significant improvement"}, {"measurement": "visual wound healing (observed size of the closure) among the three groups", "setting": "[8]; oral BID for 7 days, FIG. 11B", "value": "best visual wound healing"}, {"measurement": "bacteria count across major organs", "setting": "[9]", "value": "statistically significant reduction"}, {"measurement": "bactericidal effect (reduction in optical density)", "setting": "[10]", "value": "not observed"}]}]}
